Values quoted from earlier work, collected in patent publication US20230097323A1, “Method and Devices for Transdermal Delivery of Hydrogen Gas for Therapeutic Purposes” (Hyderm Innovations LLC, priority 2021, published 2023).

Assays:
[1] = at ambient temperature
[2] = transdermal supply, bag fitted snugly to the skin

Structure (SMILES): [HH] [hydrogen, Molecular hydrogen]
- solubility of hydrogen in water [1]: about 1.6 mg/l
- time until hydrogen concentration in the skin reaches a plateau [2]: 40 to 60 min
